Assay results published in patent publication US8470825B2, “Diazabenzo[de] anthracen-3-one compounds and methods for inhibiting PARP” (Eisai Inc., priority 2005, dated 2013).

What was measured:
[1] = target: purified recombinant human PARP (Homo sapiens (Human), UniProt P09874); test: PARP enzyme assay (IC50); assay type: biochemical; conditions: approximate IC50 values
Description: A convenient method to determine IC50 of a PARP inhibitor compound is a PARP assay using purified recombinant human PARP from Trevigan (Gaithersburg, MD), as follows: The PARP enzyme assay is set up on ice in a volume of 100 microliters consisting of 100 mM Tris-HCl (pH 8.0), 1 mM MgCl2, 28 mM KCl, 28 mM NaCl, 0.1 mg/ml of DNase I activated herring sperm DNA (Sigma, Mo.), 3.0 micromolar [3H]nicotinamide adenine dinucleotide (470 mci/mmole), 7 micrograms/ml PARP enzyme, and various concentrations of the compounds to be tested. The reaction is initiated by incubating the mixture at 25° C. After 15 minutes of incubation, the reaction is terminated by adding 500 microliters of ice cold 20% (w/v) trichloroacetic acid. The precipitate formed is transferred onto a glass fiber filter (Packard Unifilter-GF/B) and washed three times with ethanol. After the filter is dried, the radioactivity is determined by scintillation counting.

DRG neurons = test: DRG neuron morphometry in cisplatin-induced neuropathy in rats; assay type: in vivo
Description: In this experiment, female Wistar Hannover rats were dosed with neuropathy inducing doses of cisplatin (2 mg/kg IP; twice a week for 4 weeks) with and without compound 4i (40 mg/kg PO daily). The rats were monitored for changes in sensory nerve conduction velocity (SNCV) in the caudal nerve at baseline (pre-cisplatin dosing) and after treatment. Additionally, dorsal root ganglion and sciatic nerve specimens with morphometric analysis on dorsal root ganglion neurons (somatic, nuclear and nucleolar size) were assessed histopathologically. Left L5 dorsal-root ganglia (DRG) of rats from each group were obtained from the sacrificed animals and processed according to previously reported protocols [Cavaletti et al.: […] et al]], resin embedded, and used for light and electron microscope observations and morphometry. On 1 μm thick semithin sections, morphometric determinations of the cross sectional area of the somata, nuclei and nucleoli of DRG neurons were performed using an image analysts software (Image J, NIH). The differences in nerve conduction velocity, and in morphometric data obtained in dorsal root ganglia neurons during the experiment were statistically evaluated using the analysis of variance (ANOVA) and the Tukey-Kramer post-test (significance level set at p<0.05).

[2] = Sensory nerve conduction velocity (SNCV) in cisplatin-induced neuropathy in rats; assay type: in vivo; conditions: for SNCV at the end of the experiment, mean: tail nerve; for tail nerve conduction velocity impairment due to chronic cisplatin treatment: co-administration of compound 4i 40 mg/kg PO daily
Description: In this experiment, female Wistar Hannover rats were dosed with neuropathy inducing doses of cisplatin (2 mg/kg IP; twice a week for 4 weeks) with and without compound 4i (40 mg/kg PO daily). The rats were monitored for changes in sensory nerve conduction velocity (SNCV) in the caudal nerve at baseline (pre-cisplatin dosing) and after treatment. Additionally, dorsal root ganglion and sciatic nerve specimens with morphometric analysis on dorsal root ganglion neurons (somatic, nuclear and nucleolar size) were assessed histopathologically. At the beginning and end of the treatment period, each animal underwent the determination of SNCV in the tail as previously described in Cavaletti et al., “Protective Effects of glutathione on cisplatin neurotoxicity in rats,” Int. J. Radiation Oncology, 29, 771-776 (1994) and […] et al., “Low-Dose Glutathione administration in the prevention of cisplatin-induced peripheral neuropathy in rats,” Neuro toxicology, 15, 701-704 (1994). The antidromic SNCV in the tail nerve was assessed by placing recording ring electrodes distally in the tail, while the stimulating ring electrodes were placed 5 cm and 10 cm proximally with respect to the recording point. The latencies of the potentials recorded at the 2 sites after nerve stimulation were determined (peak-to-peak) and nerve conduction velocity was calculated accordingly. The differences in nerve conduction velocity, and in morphometric data obtained in dorsal root ganglia neurons during the experiment were statistically evaluated using the analysis of variance (ANOVA) and the Tukey-Kramer post-test (significance level set at p<0.05).

B16 melanoma = test: Subcutaneous B16 melanoma growth in mice, compound + temozolomide; assay type: in vivo; conditions: Compound 4i 40 mg/kg po + TMZ 100 mg/kg ip once a day for five days; s.c. tumor; day 9 to day 23
Description: The efficacy of TMZ±Compound 4i treatment was also evaluated on melanoma growing subcutaneously (s.c.) in mice. For this purpose B16 cells (2.5×10^5) were inoculated s.c. in the flank of the animal. Tumors were measured with calipers and volume calculated according to the formula: [(width)^2×length]/2. Drug treatment started 6 days after challenge, when the volume of tumor nodules reached 100-150 mm^3. Compound 4i (40 mg/kg po) was administered at 20 min before temozolomide (100 mg/kg ip) once a day for five days. Melanoma growth was monitored by measuring tumor nodules every 3 days for 3 weeks.

[3] = system: Murine melanoma B16 cells; test: Survival of mice bearing intracranial B16 melanoma, compound + temozolomide; assay type: in vivo; conditions: for MST: B16 melanoma in brain; for ILS vs TMZ: increase in lifespan
Description: The intracranial transplantation procedure was performed as described in Tentori L. et al., “Effects of single or split exposure of leukemic cells to temozolomide, combined with poly(ADP-ribose) polymerase inhibitors on cell growth, chromosomal aberrations and base excision repair components,” Cancer Chemother Pharmacol, 47, 361-9 (2001). Murine melanoma B16 cells (10^4) were injected intracranially (ic) into male B6D2F1 (C578L/6×DBA/2) mice. Histological evaluation of tumor growth in the brain was performed 1-5 days after tumor challenge, in order to determine the timing of treatment.
Compound 4i was dissolved in 70 mM PBS without potassium and administered po 1 h before temozolomide (TMZ). TMZ was dissolved in dimethyl-sulfoxide (40 mg/ml), diluted in saline (5 mg/ml) and administered ip at a dose of 100 mg/Kg for five days. Mice were treated with compound 4i by oral gavages once a day for five days, at doses of 10 or 40 mg/kg/day. Median survival times (MST) were determined and the percentage of increase in lifespan (ILS) was calculated as: {[MST (days) of treated mice/MST (days) of control mice]−1}×100. Efficacy of treatments was evaluated by comparing survival curves between treated and control groups.

[4] = Tukey's multiple comparison test

Sequence of purified recombinant human PARP (P09874 whole entry): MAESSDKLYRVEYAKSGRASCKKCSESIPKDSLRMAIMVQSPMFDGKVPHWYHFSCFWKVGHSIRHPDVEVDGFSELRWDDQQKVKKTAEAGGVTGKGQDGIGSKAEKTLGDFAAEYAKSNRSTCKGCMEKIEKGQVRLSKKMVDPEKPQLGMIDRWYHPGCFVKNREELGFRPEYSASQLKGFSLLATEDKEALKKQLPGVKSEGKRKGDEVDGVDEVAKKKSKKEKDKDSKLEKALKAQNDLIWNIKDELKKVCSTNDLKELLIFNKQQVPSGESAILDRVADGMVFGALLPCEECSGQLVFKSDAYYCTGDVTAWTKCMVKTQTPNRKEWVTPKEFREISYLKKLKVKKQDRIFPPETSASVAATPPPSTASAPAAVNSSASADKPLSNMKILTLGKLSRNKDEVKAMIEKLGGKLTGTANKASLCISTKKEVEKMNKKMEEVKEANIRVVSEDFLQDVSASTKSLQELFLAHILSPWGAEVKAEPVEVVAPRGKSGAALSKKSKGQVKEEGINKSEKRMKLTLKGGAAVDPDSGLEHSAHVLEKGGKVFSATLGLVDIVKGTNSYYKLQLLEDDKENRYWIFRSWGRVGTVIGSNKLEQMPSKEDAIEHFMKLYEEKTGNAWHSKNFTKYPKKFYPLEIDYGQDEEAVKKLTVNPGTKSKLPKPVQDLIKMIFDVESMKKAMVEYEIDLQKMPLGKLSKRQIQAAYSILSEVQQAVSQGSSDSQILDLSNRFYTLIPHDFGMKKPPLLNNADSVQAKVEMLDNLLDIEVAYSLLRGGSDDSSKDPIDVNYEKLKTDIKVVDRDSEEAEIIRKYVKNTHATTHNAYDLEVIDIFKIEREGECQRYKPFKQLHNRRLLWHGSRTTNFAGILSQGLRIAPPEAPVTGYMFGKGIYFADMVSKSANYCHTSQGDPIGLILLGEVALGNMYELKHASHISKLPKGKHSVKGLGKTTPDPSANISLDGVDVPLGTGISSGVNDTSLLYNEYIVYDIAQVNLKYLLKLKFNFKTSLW

CCN(CC)CCN(C)Cc1ccc2c(c1)-c1n[nH]c(=O)c3cccc(c13)O2 [Compound 4h, 10-{[(2-Diethylamino-ethyl)-methyl-amino]-methyl}-2H-7-oxa-1,2-diaza-benzo[de]anthracen-3-one]
IC50 [1]: 100 nM

O=c1[nH]nc2c3c(cccc13)Oc1ccc(CN3CCN(c4ncccn4)CC3)cc1-2 [Compound 4c, 10-(4-Pyrimidin-2-yl-piperazin-1-ylmethyl)-2H-7-oxa-1,2-diaza-benzo[de]anthracen-3-one]
IC50 [1]: 30 nM

CCN(CCO)Cc1ccc2c(c1)-c1n[nH]c(=O)c3cccc(c13)O2 [Compound 4j, 10-{[Ethyl-(2-hydroxy-ethyl)-amino]-methyl}-2H-7-oxa-1,2-diaza-benzo[de]anthracen-3-one]
IC50 [1]: 100 nM

[NH2][Pt]([NH2])([Cl])[Cl] [CDDP, Cisplatin, reference compound]
Morphometry on DRG, Nu (nucleus), mean (DRG neurons; CDDP alone): 114.3 μm^2
Morphometry on DRG, Nucl (nucleolus), mean (DRG neurons; CDDP alone): 7.651 μm^2
Morphometry on DRG, Soma, mean (DRG neurons; CDDP alone): 683.4 μm^2
SNCV at the end of the experiment, mean ([2]; CDDP alone 2 mg/kg IP twice a week for 4 weeks): 28.62 m/sec

CC(C)N1CCN(Cc2ccc3c(c2)-c2n[nH]c(=O)c4cccc(c24)O3)CC1 [Compound 4a, 10-(4-Isopropyl-piperazin-1-ylmethyl)2H-7-oxa-1,2-diaza-benzo[de]anthracen-3-one]
IC50 [1]: 30 nM

O=c1[nH]nc2c3c(cccc13)Oc1ccc(CN3CCC(O)CC3)cc1-2 [Compound 4i]
growth of B16 melanoma vs TMZ alone (B16 melanoma): significantly reduced
Morphometry on DRG, Nu (nucleus), mean (DRG neurons; CDDP + 4i): 121.8 μm^2
Morphometry on DRG, Nucl (nucleolus), mean (DRG neurons; CDDP + 4i): 8.069 μm^2
Morphometry on DRG, Soma, mean (DRG neurons; CDDP + 4i): 822.1 μm^2
Nucleolus Mean Diff., CDDP vs CDDP + 4i (DRG neurons; [4]): −0.4177
Soma Mean Diff., CDDP vs CDDP + 4i (DRG neurons; [4]): −138.7
effect on DRG neuron morphometry (DRG neurons; cisplatin-treated rats with compound 4i): significant effect only on the somatic size of DRG neurons
SNCV at the end of the experiment, mean ([2]; CDDP 2 mg/kg IP twice a week for 4 weeks + 4i 40 mg/kg PO daily): 34.08 m/sec
SNCV Mean Diff., CDDP vs CDDP + 4i [2, 4]: −5.460
tail nerve conduction velocity impairment due to chronic cisplatin treatment [2]: attenuate the deficits in nerve conduction velocity
tail nerve conduction velocity impairment due to chronic cisplatin treatment ([2]; listed as compound 4i): statistically significant reduction
IC50 [1]: 40 nM
MST ([3]; Compound 4i 10 mg/kg po + TMZ 100 mg/kg ip x 5 days): 17 days
ILS vs TMZ ([3]; Compound 4i 10 mg/kg po + TMZ x 5): 21%
MST ([3]; Compound 4i 40 mg/kg po + TMZ 100 mg/kg ip x 5 days): 21 days
ILS vs TMZ ([3]; Compound 4i 40 mg/kg po + TMZ x 5): 50%
mean survival time vs TMZ as single agent ([3]; compound 4i + TMZ combination, mice bearing B16 melanoma): significantly higher

O=C1CN(Cc2ccc3c(c2)-c2n[nH]c(=O)c4cccc(c24)O3)CCN1 [Compound 4d, 10-(3-Oxo-piperazin-1-ylmethyl)-2H-7-oxa-1,2-diaza-benzo[de]anthracen-3-one]
IC50 [1]: 20 nM

O=C1CCN(Cc2ccc3c(c2)-c2n[nH]c(=O)c4cccc(c24)O3)CC1 [Compound 4s, 10-(4-Oxo-piperidin-1-ylmethyl)-2H-7-oxa-1,2-diaza-benzo[de]anthracen-3-one]
IC50 [1]: 120 nM

O=c1[nH]nc2c3c(cccc13)Oc1ccc(CN3CCC(CCO)CC3)cc1-2 [Compound 4m, 10-[4-(2-Hydroxy-ethyl)-piperidin-1-ylmethyl]-2H-7-oxa-1,2-diaza-benzo[de]anthracen-3-one]
IC50 [1]: 100 nM

O=c1[nH]nc2c3c(cccc13)Oc1ccc(CN3CCC4(CC3)OCCO4)cc1-2 [Compound 4n, 10-(1,4-Dioxa-8-aza-spiro[4.5]dec-8-ylmethyl)-2H-7-oxa-1,2-diaza-benzo[de]anthracen-3-one]
IC50 [1]: 100 nM

Cn1nnc2c(C(N)=O)ncn2c1=O [TMZ, temozolomide, reference compound]
MST ([3]; TMZ alone 100 mg/kg ip x 5): 14 days

O=c1[nH]nc2c3c(cccc13)Oc1ccc(CN3CCCC(O)C3)cc1-2 (stereo not shown) [Compound 4o, 10-(3-Hydroxy-piperidin-1-ylmethyl)-2H-7-oxa-1,2-diaza-benzo[de]anthracen-3-one]
IC50 [1]: 50 nM

O=c1[nH]nc2c3c(cccc13)Oc1ccc(CN3CCC(O)C3)cc1-2 (stereo not shown) [Compound 4l, 10-(3-Hydroxy-pyrrolidin-1-ylmethyl)-2H-7-oxa-1,2-diaza-benzo[de]anthracen-3-one]
IC50 [1]: 100 nM

O=c1[nH]nc2c3c(cccc13)Oc1ccc(CN3CC(O)C3)cc1-2 [Compound 4p, 10-(3-Hydroxy-azetidin-1-ylmethyl)-2H-7-oxa-1,2-diaza-benzo[de]anthracen-3-one]
IC50 [1]: 30 nM

O=c1[nH]nc2c3c(cccc13)Oc1ccc(CN[C@H]3CC[C@H](O)CC3)cc1-2 [Compound 4r, 10-[(4-Hydroxy-cyclohexylamino)-methyl]-2H-7-oxa-1,2-diaza-benzo[de]anthracen-3-one]
IC50 [1]: 30 nM

CC(C)N(Cc1ccc2c(c1)-c1n[nH]c(=O)c3cccc(c13)O2)C(C)C [Compound 4k, 10-[(Diisopropylamino)-methyl]-2H-7-oxa-1,2-diaza-benzo[de]anthracen-3-one]
IC50 [1]: 300 nM

COCCN1CCN(Cc2ccc3c(c2)-c2n[nH]c(=O)c4cccc(c24)O3)CC1 [Compound 4b, 10-[4-(2-Methoxy-ethyl)-piperazin-1-ylmethyl]-2H-7-oxa-1,2-diaza-benzo[de]anthracen-3-one]
IC50 [1]: 20 nM

O=c1[nH]nc2c3c(cccc13)Oc1ccc(CNCCN3CCOCC3)cc1-2 [Compound 4q, 10-[(2-Morpholin-4-yl-ethylamino)-methyl]-2H-7-oxa-1,2-diaza-benzo[de]anthracen-3-one]
IC50 [1]: 50 nM
